1 compound from patent US9205073B2, “Method for treating virus infection using derivative of aniline” (CHINA MEDICAL UNIVERSITY, priority 2014, dated 2015) can be followed below.

One data set deals with DEN2. As to the kind of experiment: Dengue virus replication, DEN2 NS1 antigen-capture ELISA in Huh7 cells. The class given is cell-based, dengue virus type 2. To be noted: M.O.I.=5, 48 hours, compound 10 μM. The protocol:
Huh7 cells were cultured in a 24-well culture plate with an initial density of 3×10^4 per well, and with 1 ml of 2% FBS-containing MEM medium per well. The cells were incubated in an incubator (37° C., 5% CO2) overnight. The medium was removed until the cells adhered to the plate. Then, 1 ml of fresh 2% FBS-containing MEM medium was simultaneously added into each well of the culture plate. The cells were infected with DEN2 virus strain (M.O.I.=5). Different concentrations of compound 1 (the final concentrations were 0, 10, 50, 100 and 150 μM, respectively) were added into different wells. The culture plate was placed into an incubator (37° C., 5% CO2) and maintained for 48 hours. The supernatant of viral medium was collected.
The above obtained supernatant was analyzed by an antigen-capture enzyme-linked immunosorbent assay (ELASA) to quantitate the DEN2 NSI protein level in the viral medium. First, a NS1 antibody was added into each well of a 96-well micro-reaction plate (200 μl/well) and the reaction was maintained at 4° C. overnight. Each well was washed with PBST 3 times (200 μl/time). A 1% BSA-containing blocking buffer (300 μl) was added into each well. […] The reading value of DEN NS1 protein amount in each supernatant was determined by examining the absorbances at a wavelength of 450 nm to evaluate DEN2 replication.
(In general: In an ELISA, binding on a coated surface is turned into a signal by an enzyme label.)

Data set [1] is described as follows: MTT assay, cell survival / CC50 in TE671 cells. The class given is cell-based. To be noted: human, read-out: concentration of 50% cytotoxicity (CC50). The method, then:
In this example, 3-(4,5-dimethylthiazol-2-yl)-2,5-diphenyl tetrazolium bromide (MTT) was used to determine if the survival rate of BHK-21 cells, TE671cells and RD cells would be influenced when being treated with different concentrations of compound 1 prepared in Example 1. The concentration of 50% cytotoxicity (CC50) of compound 1 in BHK-21 cells, TE671cells and RD cells was also calculated.
MTT is a water-soluble tetrazolium salt which can react in the mitochondrial respiratory chain in living cells to metabolize and reduce the tetrazolium bromide shown in the structure of MTT and to form an water-insoluble purple crystal formazan under the reaction of succinate dehydrogenase (SDH) and cytochrome c (cyt c). The amount of the produced crystal is directly proportional to the number of living cells (because the SDH will disappear from dead cells, and thus, the MTT cannot be reduced). Furthermore, a mitochondrium is an organelle in cells that is most sensitive to the environment, and thus, the MTT assay can serve as a marker for the survival rate of cells treated by the drug.
BHK-21 cells, TE671cells and RD cells were cultured in a 96-well culture plate, respectively, with an initial density of 3×10^3 per well, and with 100 μl of 2% FBS-containing MEM medium per well. […] The absorbances of the samples were measured by ELISA at a wavelength of 570/630 nm.
In general terms: Formazan colour is commonly taken as a measure of viable cells.

For a further data set, the system named is JEV T1P1. The experiment in a line: Cytopathic effect test, JEV T1P1-infected BHK-21 cells. The format is cell-based, Japanese encephalitis virus. The protocol:
BHK-21 cells and/or TE671cells were separately cultured in a 24-well culture plate, with an initial density of 3×10^4 per well, and with 1 ml of 2% FBS-containing MEM medium per well. The cells were incubated in an incubator (37° C., 5% CO2) overnight, and the medium was removed until the cells adhered to the plate. Then, fresh 2% FBS-containing MEM medium was simultaneously added into each well of the culture plate. The cells were infected with a JEV T1P1 virus strain, wherein the amount of JEV T1P1 used to infect BHK-21 cells was a multiplicity of infection (M.O.I.)=0.1, and the amount of JEV T1P1 used to infect TE671 cells was M.O.I.=0.05. Different concentrations of compound 1 (final concentrations were 0, 2.5, 25 and 125 μM, respectively) were added into different wells. The culture plate was placed into an incubator (37° C., 5% CO2) and maintained therein.
When BHK-21 cells were infected with JEV T1P1 virus strain for 48 and 72 hours as indicated in the above experiment (1), the cytopathic effect was observed by photography, while the cytopathic effect of TE671 cells was observed by photography when TE671 cells were infected with the JEV T1P1 virus strain for 36 and 48 hours. In addition, 200 μl culture medium supernatant of both cells was collected from each time point (i.e., 48 and 72 hours), thereby, providing the use for a viral plaque test in Example 4.

The structures appear in SMILES notation.

On to `CCOC(=O)C1=C(Nc2cc(C)cc(C)c2)OCC1=O` [Compound 1, ethyl 2-(3′,5′-dimethylanilino)-4-oxo-4,5-dihydrofuran-3-carboxylate], for which, in the data set with DEN2, the “level of DEN2 NS1 protein” value is given as “reduced”. For the same compound, the CC50 at 48 h in data set [1] worked out at 189 µM. Further, the “JEV T1P1-induced cytopathic effect” value in the data set on JEV T1P1 (infected 48 hours, M.O.I.=0.1, compound 25 μM simultaneously) is “significantly reduced”; in the data set on JEV T1P1 (infected 72 hours, M.O.I.=0.1, compound 125 μM simultaneously), “effectively inhibited”.
